Converted amounts (≈) assume the structure as drawn. Where two headings read alike, the source gives them in different places.
Key:
Type in all cases: cell-based
Staphylococcus aureus = test: MIC by agar macrodilution (NCCLS), 373 Gram positive isolates, Athens 1998
Streptococcus pneumoniae [1] = test: MIC by E-test (broth microdilution for gemifloxacin), 107 pneumococcal carrier isolates, Athens 1998; details: for MIC Range: in µg/mL (unit assumed)
Description: Susceptibility testing was performed by agar dilution or epsilometer method (E-test), as recommended by the NCCLS. […] The susceptibility profiles of the strains were assessed using the Epsilometer method (E-test). The isolates were subdivided into two groups according to their penicillin susceptibility patterns (penicillin-susceptible and penicillin-intermediate.

Streptococcus pneumoniae [2] = test: MIC by agar dilution (NCCLS), 411 isolates Buenos Aires 1998-99; details: Streptococcus pneumoniae, S. pneumoniae, read-out: MIC90
Enterococcus faecium = test: MIC by agar macrodilution (NCCLS), 373 Gram positive isolates, Athens 1998
Enterococcus faecalis = test: as above
[3] = Methicillin-susceptible Staphylococcus aureus (n = 85), read-out: MIC50
[4] = Methicillin-susceptible Staphylococcus aureus (n = 85), read-out: MIC90
[5] = Streptococcus pneumoniae, Penicillin-intermediate S. pneumoniae (n = 24), E-test, read-out: MIC50
[6] = Streptococcus pneumoniae, Penicillin-intermediate S. pneumoniae (n = 24), E-test, read-out: MIC90
[7] = Streptococcus pneumoniae, Penicillin-susceptible S. pneumoniae (n = 107), E-test, read-out: MIC50
[8] = Streptococcus pneumoniae, Penicillin-susceptible S. pneumoniae (n = 107), E-test, read-out: MIC90
[9] = number of isolates at MIC […], n = 14
[10] = Methicillin-susceptible Staphylococcus aureus (n = 85)
[11] = number of isolates with MIC […] µg/ml, Methicillin-susceptible Staphylococcus aureus (n = 85)
[12] = number of isolates with MIC […], Methicillin-susceptible Staphylococcus aureus (n = 85)
[13] = Penicillin-intermediate S. pneumoniae (n = 24), E-test
[14] = Penicillin-intermediate S. pneumoniae (n = 24), E-test, unit assumed
[15] = Penicillin-susceptible S. pneumoniae (n = 107), E-test
[16] = Penicillin-susceptible S. pneumoniae (n = 107), E-test, unit assumed
[17] = number of isolates at MIC 1 µg/ml, n = 81
[18] = number of isolates at MIC 4 µg/ml, n = 81
[19] = number of isolates at MIC […], n = 81
[20] = continuation of the preceding table (title not shown), 14 isolates

## CC[C@H]1OC(=O)[C@H](C)[C@@H](O[C@H]2C[C@@](C)(OC)[C@@H](O)[C@H](C)O2)[C@H](C)[C@@H](O[C@@H]2O[C@H](C)C[C@H](N(C)C)[C@H]2O)[C@](C)(OC)C[C@@H](C)C(=O)[C@H](C)[C@@H](O)[C@]1(C)O [Clarithromycin]
Staphylococcus aureus; [3]
  MIC50: 0.25 µg/mL (≈ 0.334 µM)
Staphylococcus aureus; [4]
  MIC90: 1 µg/mL (≈ 1.34 µM)
Streptococcus pneumoniae [1]; [5]
  MIC50: 0.094 µg/mL (≈ 0.126 µM)
Streptococcus pneumoniae [1]; [6]
  MIC90: ≥ 256 µg/mL
Streptococcus pneumoniae [1]; [7]
  MIC50: 0.094 µg/mL (≈ 0.126 µM)
Streptococcus pneumoniae [1]; [8]
  MIC90: 0.38 µg/mL (≈ 0.508 µM)

## CC[C@H]1OC(=O)[C@H](C)[C@@H](O[C@H]2C[C@@](C)(OC)[C@@H](O)[C@H](C)O2)[C@H](C)[C@@H](O[C@@H]2O[C@H](C)C[C@H](N(C)C)[C@H]2O)[C@](C)(O)C[C@@H](C)CN(C)[C@H](C)[C@@H](O)[C@]1(C)O [Azithromycin, azithromycin]
Streptococcus pneumoniae [2]; Penicillin intermediate (n = 17)
  MIC90: 1 µg/mL (≈ 1.34 µM)
Streptococcus pneumoniae [2]; Penicillin resistant (n = 4)
  MIC90: 0.06 µg/mL (≈ 0.0801 µM)
Streptococcus pneumoniae [2]; Penicillin susceptible (n = 69)
  MIC90: 0.06 µg/mL (≈ 0.0801 µM)
Staphylococcus aureus; [3]
  MIC50: 1 µg/mL (≈ 1.34 µM)
Staphylococcus aureus; [4]
  MIC90: 2 µg/mL (≈ 2.67 µM)
Streptococcus pneumoniae [1]; [5]
  MIC50: 1 µg/mL (≈ 1.34 µM)
Streptococcus pneumoniae [1]; [6]
  MIC90: ≥ 256 µg/mL
Streptococcus pneumoniae [1]; [7]
  MIC50: 0.75 µg/mL (≈ 1 µM)
Streptococcus pneumoniae [1]; [8]
  MIC90: 3 µg/mL (≈ 4.01 µM)

## Teicoplanin
Enterococcus faecium; n = 14 isolates
  MIC50: 0.5 µg/mL
  MIC90: 1 µg/mL
  MIC Range: 0.25 to 4 µg/mL
Enterococcus faecium; number of isolates at MIC 0.03 µg/ml, n = 14
  MIC distribution (µg/ml) 0.03: 0
Enterococcus faecium; number of isolates at MIC 0.06 µg/ml, n = 14
  MIC distribution (µg/ml) 0.06: 0
Enterococcus faecium; number of isolates at MIC 0.5 µg/ml, n = 14
  MIC distribution (µg/ml) 0.5: 4
Enterococcus faecium; number of isolates at MIC 1 µg/ml, n = 14
  MIC distribution (µg/ml) 1: 6
Enterococcus faecium; number of isolates at MIC 2 µg/ml, n = 14
  MIC distribution (µg/ml) 2: 0
Enterococcus faecium; number of isolates at MIC 4 µg/ml, n = 14
  MIC distribution (µg/ml) 4: 1
Enterococcus faecium; number of isolates at MIC 8 µg/ml, n = 14
  MIC distribution (µg/ml) 8: 0
Enterococcus faecium; number of isolates at MIC 16 µg/ml, n = 14
  MIC distribution (µg/ml) 16: 0
Enterococcus faecium; [9]
  MIC distribution (µg/ml) 0.125: 0
  MIC distribution (µg/ml) 0.25: 3
Enterococcus faecium; number of isolates at MIC ≤[…], n = 14
  MIC distribution (µg/ml) ≤0.015: 0
Enterococcus faecium; number of isolates at MIC ≥32 µg/ml, n = 14
  MIC distribution (µg/ml) ≥32: 0
Staphylococcus aureus; [10]
  MIC50: 1 µg/mL
  MIC90: 2 µg/mL
  MIC Range: 0.5 to 8 µg/mL
Staphylococcus aureus; number of isolates with MIC 0.06 µg/ml, Methicillin-susceptible Staphylococcus aureus (n = 85)
  MIC distribution (µg/ml) 0.06: 0
Staphylococcus aureus; number of isolates with MIC 0.5 µg/ml, Methicillin-susceptible Staphylococcus aureus (n = 85)
  MIC distribution (µg/ml) 0.5: 26
Staphylococcus aureus; number of isolates with MIC 1 µg/ml, Methicillin-susceptible Staphylococcus aureus (n = 85)
  MIC distribution (µg/ml) 1: 40
Staphylococcus aureus; number of isolates with MIC 2 µg/ml, Methicillin-susceptible Staphylococcus aureus (n = 85)
  MIC distribution (µg/ml) 2: 17
Staphylococcus aureus; number of isolates with MIC 4 µg/ml, Methicillin-susceptible Staphylococcus aureus (n = 85)
  MIC distribution (µg/ml) 4: 0
Staphylococcus aureus; number of isolates with MIC 8 µg/ml, Methicillin-susceptible Staphylococcus aureus (n = 85)
  MIC distribution (µg/ml) 8: 2
Staphylococcus aureus; number of isolates with MIC >[…] µg/ml, Methicillin-susceptible Staphylococcus aureus (n = 85)
  MIC distribution (µg/ml) >64: 0
Staphylococcus aureus; [11]
  MIC distribution (µg/ml) 16: 0
  MIC distribution (μg/ml) 32: 0
  MIC distribution (μg/ml) 64: 0
Staphylococcus aureus; [12]
  MIC distribution (µg/ml) 0.125: 0
  MIC distribution (µg/ml) 0.25: 0
Staphylococcus aureus; number of isolates with MIC ≤0.03 µg/ml, Methicillin-susceptible Staphylococcus aureus (n = 85)
  MIC distribution (µg/ml) ≤0.03: 0
Streptococcus pneumoniae [1]; [13]
  MIC Range: 0.023-0.125
Streptococcus pneumoniae [1]; [14]
  MIC50: 0.064 µg/mL
  MIC90: 0.125 µg/mL
Streptococcus pneumoniae [1]; [15]
  MIC Range: 0.023-3
Streptococcus pneumoniae [1]; [16]
  MIC50: 0.064 µg/mL
  MIC90: 0.38 µg/mL
Enterococcus faecalis; n = 81 isolates
  MIC50: 0.5 µg/mL
  MIC90: 1 µg/mL
  MIC Range: 0.06 to 16 µg/mL
Enterococcus faecalis; number of isolates at MIC 0.03 µg/ml, n = 81
  MIC distribution (µg/ml) 0.03: 0
Enterococcus faecalis; number of isolates at MIC 0.06 µg/ml, n = 81
  MIC distribution (µg/ml) 0.06: 2
Enterococcus faecalis; number of isolates at MIC 0.5 µg/ml, n = 81
  MIC distribution (µg/ml) 0.5: 35
Enterococcus faecalis; [17]
  MIC distribution (µg/ml) 1: 27
Enterococcus faecalis; number of isolates at MIC 2 µg/ml, n = 81
  MIC distribution (µg/ml) 2: 4
Enterococcus faecalis; [18]
  MIC distribution (µg/ml) 4: 0
Enterococcus faecalis; number of isolates at MIC 8 µg/ml, n = 81
  MIC distribution (µg/ml) 8: 0
Enterococcus faecalis; number of isolates at MIC 16 µg/ml, n = 81
  MIC distribution (µg/ml) 16: 1
Enterococcus faecalis; [19]
  MIC distribution (µg/ml) 0.125: 6
  MIC distribution (µg/ml) 0.25: 6
Enterococcus faecalis; number of isolates at MIC ≤[…], n = 81
  MIC distribution (µg/ml) ≤0.015: 0
Enterococcus faecalis; number of isolates at MIC ≥32 µg/ml, n = 81
  MIC distribution (µg/ml) ≥32: 0

## CN[C@H](CC(C)C)C(=O)N[C@H]1C(=O)N[C@@H](CC(N)=O)C(=O)N[C@H]2C(=O)N[C@H]3C(=O)N[C@H](C(=O)N[C@H](C(=O)O)c4cc(O)cc(O)c4-c4cc3ccc4O)[C@H](O)c3ccc(c(Cl)c3)Oc3cc2cc(c3O[C@@H]2O[C@H](CO)[C@@H](O)[C@H](O)[C@H]2O[C@H]2C[C@](C)(N)[C@H](O)[C@H](C)O2)Oc2ccc(cc2Cl)[C@H]1O [Vancomycin]
Staphylococcus aureus; [10]
  MIC Range: 0.5 to 2 µg/mL
Staphylococcus aureus; Staphylococcus aureus
  MIC50: 1 µg/mL (≈ 0.69 µM)
  MIC90: 2 µg/mL (≈ 1.38 µM)
Streptococcus pneumoniae [1]; [13]
  MIC Range: 0.19-1.5
Streptococcus pneumoniae [1]; [14]
  MIC90: 1 µg/mL (≈ 0.69 µM)
Streptococcus pneumoniae [1]; [15]
  MIC Range: 0.064-2
Streptococcus pneumoniae [1]; Streptococcus pneumoniae
  MIC90: 1 µg/mL (≈ 0.69 µM)
Streptococcus pneumoniae [1]; Streptococcus pneumoniae, Penicillin-intermediate S. pneumoniae (n = 24), E-test
  MIC50: 0.75 µg/mL (≈ 0.518 µM)
Streptococcus pneumoniae [1]; Streptococcus pneumoniae, Penicillin-susceptible S. pneumoniae (n = 107), E-test
  MIC50: 0.5 µg/mL (≈ 0.345 µM)
Enterococcus faecalis
  MIC distribution (µg/ml) 0.03: 0
  MIC distribution (µg/ml) 0.06: 0
  MIC distribution (µg/ml) 0.125: 0
  MIC distribution (µg/ml) 0.25: 0
  MIC distribution (µg/ml) 0.5: 0
  MIC distribution (µg/ml) 1: 4
  MIC distribution (µg/ml) 4: 6
  MIC distribution (µg/ml) 8: 0
  MIC distribution (µg/ml) 16: 0
  MIC distribution (µg/ml) ≤0.015: 0
Enterococcus faecalis; Enterococcus faecalis
  MIC50: 2 µg/mL (≈ 1.38 µM)
  MIC90: 4 µg/mL (≈ 2.76 µM)
Enterococcus faecalis; [20]
  MIC50: 2 µg/mL (≈ 1.38 µM)
  MIC90: 4 µg/mL (≈ 2.76 µM)
  MIC Range: 1 to 4 µg/mL
Enterococcus faecalis; [17]
  MIC distribution (µg/ml) 1: 10
Enterococcus faecalis; [18]
  MIC distribution (µg/ml) 4: 40

Source: patent EP1561465A2, “Methods of use of fluoroquinolone compounds against bacteria” (LG Life Sciences, Ltd., priority 1999, dated 2001)
